From patent US20080003254A1, “SYSTEMS AND METHODS FOR DELIVERING A RAPAMYCIN ANALOG THAT DO NOT INHIBIT HUMAN CORONARY ARTERY ENDOTHELIAL CELL MIGRATION” (ABBOTT LABORATORIES, priority 2006, published 2008)

Legend:
[1] = system: human coronary artery endothelial cells (hCaEC); experiment: hCaEC migration in modified Boyden chambers; type: cell-based; conditions: for effect on hCaEC migration: FIG. 1A; for effect on FBS-induced hCaEC migration: 24 hours drug pretreatment in growth media, migration in response to 5% FBS without additional growth factors, FIG. 3; for effect on full growth media induced hCaEC migration: 24 hours drug pretreatment in hCaEC full growth media, drug present during migration, FIG. 2
Experimental: (§1) The cancer chemotherapeutic, paclitaxel is hypothesized to directly interfere with microtubule homeostasis leading to the inhibition of EC migration and proliferation, which can lead to increased thrombosis. Reduced p70S6K activation alone will not result in anti-migratory activity. To examine the comparative effects of sirolimus, zotarolimus, dexamethasone, and paclitaxel on human coronary artery smooth muscle and endothelial cell migration, studies were conducted using modified Boyden chambers. As such, EC migration in response to HFGF, HEGF, VEGF, R^3-IGF-1 and FBS was determined using a modified Boyden chamber. Migration was induced using a variety of chemotactic stimuli including fetal bovine serum (FBS) in the presence and absence of growth factors as well as […] homodimer B (PDGF-BB). Anti-migratory activity was assessed after acute drug treatment and after pretreatment (24 hours) in basal or growth conditions.
(§2) Primary human coronary artery smooth muscle (hCaSMC) and endothelial cells (hCaEC) obtained from Cambrex (Walkersville, Md.) were routinely maintained in media recommended by the manufacturer. The hCaSMC were grown in a smooth muscle growth medium (“minimal media”, SmnBM, Cambrex) supplemented with the appropriate SingleQuot® to yield the complete medium containing 5% FBS, 0.1% hEGF, 0.2% hFGF-B, and 0.1% insulin (hCaSMC growth media). The hCaEC were maintained in the corresponding complete medium consisting of an endothelial cell growth medium (“minimal media”, EBM-2, Cambrex) supplemented with the appropriate SingleQuot® to yield the complete medium containing 5% FBS, 0.1% HEGF-B, 0.4% FGF, 0.1% R3-IGF, 0.04% hydrocortisone, 0.1% VEGF, and 0.1% ascorbic acid (hCaEC growth media). Cells were routinely propagated in the appropriate medium in humidified incubators maintained at 37° C. in an atmosphere containing 5% CO2. When necessary, each cell type was passed at 75% confluence.
(§3) Cells were maintained and used prior to 7 population doublings in all experiments. To expand cells prior to assay, frozen hCaSMC or hCaEC cells were thawed and cultured in T-162 flasks in smooth muscle growth medium (SmGM) or endothelial cell growth medium-2 (EGM-2), respectively, with the appropriate supplements. The cell medium was changed the next day and then every other day until cells reached 70-90% confluency. Growth medium was removed and cells were rinsed twice with PBS (without Ca^2+ and Mg^2+). To detach cells, sufficient trypsin/EDTA (3 ml) was added to cover the cell monolayer and the flask incubated at room temperature. After cells detached, trypsin was neutralized by addition of 6 ml complete medium. Cells were counted, transferred to a 50 ml tube and centrifuged. The cell pellet was re-suspended in growth medium to the appropriate cell density for experiments.
(§4) Cells (hCaEC or hCaSMC) were synchronized for 24 hours in basal media prior to all migration experiments. In acute studies, cells were collected, counted, and 200,000 hCaEC or 160,000 hCaSMC placed in the upper chambers of modified boyden chambers in 24 well plates (BD Biosciences). Plates contained microporous Fluoroblok membranes of 3.0 and 8.0 um for hCaEC and hCaSMC, respectively (Beckton Dickensen Biosciences). Chambers used in hCaEC migration experiments were coated with fibronectin (BD BioCoat). In pretreatment experiments, cells were synchronized in the presence of drug or treated for 24 hours in growth media after synchronization but prior to cell counting and migration. All cells were resuspended in basal media containing drugs or solvent (control) prior to migration. Cells were allowed to migrate in response to chemotatic agents for 22-24 hours. After migration, cells were stained with calcein-AM for 90 minutes and fluorescence determined using a plate reader capable of measuring fluorescence emitted by the bottom of the microporous filter. […]

[2] = system: p70S6K (T389) phosphorylation; experiment: Western blot of p70S6K (T389) phosphorylation in hCaSMC; type: cell-based, human; conditions: 300 nM drug for 36 hours after 24 hours synchronization; FIG. 7
Experimental: To determine if inhibition of p70S6K was involved in serum-induced migration Western blot experiments were performed on hCaEC and hCaSMC treated using an experimental paradigm similar to those of the migration experiments. Cells were synchronized for 24 hours in basal media followed by drug treatment in growth media for 36 hours. The effects of drug treatment on p70S6K T389 phosphorylation in hCaEC are illustrated in FIG. 6A-6B.
The hCaSMC were synchronized for 24 hours in basal media and incubated in growth media with or without drugs (300 nM) for 36 hours […]. Membranes were probed with a rabbit anti-phospho-p70S6K (T389) monoclonal antibody (Cell Signaling). […] Furthermore, the anti-migratory activity of the mTOR antagonists is not likely to contribute to their anti-restenotic activity. Conversely, paclitaxel is a potent anti-migratory agent and this effect is likely to contribute to it's anti-restenotic activity.

pRb phosphorylation = pRb phosphorylation (Western blot, hEC); type: cell-based, human
From the text: Western blots have shown the levels of specific proteins using antibodies to those proteins in response to the rapamycin analog (e.g., zotarolimus). […] It has been shown that paclitaxel and zotarolimus inhibit the activation of p70S6K.
Additionally, it has been shown that paclitaxel, but not zotarolimus or dexamethasone, inhibits migration of human coronary artery endothelial cells in vitro. […] Paclitaxel blocks migration, however, all agents reduce p70S6K (T389) phosphorylation. […] Dexamethasone and zotarolimus are not predicted to inhibit re-endothelialization of vascular legions, and dexamethasone may promote re-endothelialization of vascular lesions. In contrast, paclitaxel inhibits re-endothelialization by blocking endothelial cell and/or smooth muscle cell migration.

[3] = system: human coronary artery smooth muscle cells (hCaSMC); experiment: hCaSMC migration in modified Boyden chambers; type: cell-based; conditions: for effect on FBS-induced hCaSMC migration: 24 hours drug pretreatment in growth media, migration in response to FBS alone, FIG. 4; for effect on PDGF-BB stimulated hCaSMC migration: 24 hours pretreatment, PDGF-BB (25 ng/ml), FIG. 5
Experimental: as §1, §2, §3, §4

[4] = system: p70S6K (T389) phosphorylation; experiment: Western blot of p70S6K (T389) phosphorylation in hCaEC; type: cell-based, human; conditions: for effect on p70S6K T389 phosphorylation in hCaEC: 300 nM drug in growth media for 36 hours after 24 hours synchronization, FIG. 6A
Experimental: Human Coronary Endothelial Cells (hCaEC, Cambrex) were seeded on 100 mm plastic dishes (1-3×10^5 cells per dish) and incubated at 37° C. with 5% CO2 in complete growth media containing hFGF, HEGF, VEGF, R^3-IGF-1 and 5% FBS (GM). Cells were allowed to grow until dishes were 30-40% confluent. Cells were synchronized by incubation in basal media without supplements (BM) for 24 h. After synchronization the BM was replaced with GM containing test compounds, DMSO and BSA (Experimental dish: GM containing 300 nM test compounds, 0.1% BSA; Positive control: GM containing 0.1% BSA and 0.1% DMSO; Negative control: BM containing 0.1 or 0.5% FBS, 0.1% BSA and 0.1% DMSO).
Cells were incubated for 24 or 36 hours at 37° C. with 5% CO2. After which dishes were 50-70% confluent. Dishes were rinsed with warm PBS to remove excess FBS and than placed on ice. Whole cell lysates were prepared by adding 150-200 ul of RIPA lysis buffer at 4° C. (50 mM Tris HCl pH 8, 150 mM NaCl, 1% NP-40, 0.5% sodium deoxycholate, 0.1% SDS, 2 mM PMSF, 1 mM sodium orthovanadate, and protease inhibitor cocktail, Santa Cruz Biotechnology) to the culture dishes and collected by scrapping the plate surface with a cell scrapper. Lysates were transferred to 1 ml eppendorf tubes and incubated on ice with vortexing for 30 min. Samples were than centrifuged for 8 min at 10000 rpm. […]
The total protein concentration of the samples was determined by a modification of the method of Bradford (Quick Start Bradford Microplate Standard Assay, Bio-Rad) with bovine γ-globulin as a standard.
Total volume of the loaded sample was 45 ul containing 15 ul of 3× sample buffer (Laemmli Sample Buffer, Bio Rad), and sample (30 ul) containing 25 to 50 ug of protein. […] Denaturated samples were separated in 4-15% gradient or 12% Ready Tris-HCl gels (Bio-Rad) in running buffer 25 mM Tris, pH 8.3, 192 mM glycine, 0.1% SDS at 150-180 V for 60-90 minutes and transferred to Hybond-ECL membrane (Amersham Biosciences) in 25 mM Tris, pH 8.3, 192 mM glycine, 20% methanol at 100 V for 1 hour. […]

[5] = acute drug exposure, no pretreatment, 5% FBS, 22 hour migration

## CO[C@H]1C[C@@H]2CC[C@@H](C)[C@@](O)(O2)C(=O)C(=O)N2CCCC[C@H]2C(=O)O[C@H]([C@H](C)C[C@@H]2CC[C@@H](O)[C@H](OC)C2)CC(=O)[C@H](C)/C=C(\C)[C@@H](O)[C@@H](OC)C(=O)[C@H](C)C[C@H](C)/C=C/C=C/C=C/1C [sirolimus]
[1]; [5]
  effect on hCaEC migration: no effect

## CO[C@H]1C[C@@H]2CC[C@@H](C)[C@@](O)(O2)C(=O)C(=O)N2CCCC[C@H]2C(=O)O[C@H]([C@H](C)C[C@@H]2CC[C@H](n3cnnn3)[C@H](OC)C2)CC(=O)[C@H](C)/C=C(\C)[C@@H](O)[C@@H](OC)C(=O)[C@H](C)C[C@H](C)/C=C/C=C/C=C/1C [zotarolimus]
[2]
  effect on p70S6K T389 phosphorylation in hCaSMC: completely inhibit
[1]
  effect on FBS-induced hCaEC migration: did not significantly block
  effect on full growth media induced hCaEC migration: only paclitaxel inhibits
[1]; [5]
  effect on hCaEC migration: no effect
pRb phosphorylation
  effect on pRb phosphorylation: reduces pRb phosphorylation
[3]
  effect on FBS-induced hCaSMC migration: did not significantly block
  effect on PDGF-BB stimulated hCaSMC migration: inhibited migration
[4]
  effect on p70S6K T389 phosphorylation in hCaEC: completely block
[4]; hCaEC, 300 nM drug, FIG. 6B
  p70S6K T389 to actin ratio compared to growth controls (densitometry): significant inhibition

## CO[C@H]1C[C@@H]2CC[C@@H](C)[C@@](O)(O2)C(=O)C(=O)N2CCCC[C@H]2C(=O)O[C@H]([C@H](C)C[C@@H]2CC[C@@H](OCCO)[C@H](OC)C2)CC(=O)[C@H](C)/C=C(\C)[C@@H](O)[C@@H](OC)C(=O)[C@H](C)C[C@H](C)/C=C/C=C/C=C/1C [everolimus]
[1]
  effect on full growth media induced hCaEC migration: only paclitaxel inhibits

## CC(=O)O[C@H]1C(=O)[C@@]2(C)[C@H]([C@H](OC(=O)c3ccccc3)[C@]3(O)C[C@H](OC(=O)[C@H](O)[C@@H](NC(=O)c4ccccc4)c4ccccc4)C(C)=C1C3(C)C)[C@]1(OC(C)=O)CO[C@@H]1C[C@@H]2O [paclitaxel]
[2]
  effect on p70S6K T389 phosphorylation in hCaSMC: reduces p70S6K
[1]
  effect on FBS-induced hCaEC migration: significantly blocks
  effect on full growth media induced hCaEC migration: inhibits
[1]; Homo sapiens, Endothelial cell, acute drug exposure, no pretreatment, 5% FBS, 22 hour migration, mean±SEM, n=3, read-out: maximal efficacy of inhibition of hCaEC migration
  Emax: 96.8 ± 1.8%
[1]; Homo sapiens, Endothelial cell, acute drug exposure, no pretreatment, migration induced by 5% FBS, 22 hour migration, mean±SEM, n=3, FIG. 1C, read-out: IC50 of inhibition of hCaEC migration
  IC50: 28.2 ± 3.4 nM
[3]
  effect on FBS-induced hCaSMC migration: significantly blocks
  effect on PDGF-BB stimulated hCaSMC migration: inhibited migration
[3]; Homo sapiens, acute drug exposure, no pretreatment, 5% FBS, 22 hour migration, read-out: IC50 of inhibition of hCaSMC migration
  IC50: 87.4 ± 18 nM
[3]; Homo sapiens, acute drug exposure, no pretreatment, 5% FBS, 22 hour migration, read-out: maximal efficacy of inhibition of hCaSMC migration
  Emax: 86.9 ± 2.9%
[4]
  effect on p70S6K T389 phosphorylation in hCaEC: reduces T389 phosphorylation
